Experimental data as given in ChEMBL document CHEMBL1201862, “PubChem BioAssay data set” (2004).
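Grown in 96-well plates, cells were treated for 48 hours with each compound at five concentrations. Insufficient inhibition: endpoint recorded as highest concentration tested. GI50 marks 50% less growth.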 Calls of active or inactive are those of the source. Rule as the data show it: active = GI50 up to about 1.1 µM and inactive = higher.

Assays:
Assay in all cases: inhibition of tumour cell growth, NCI panel, 48 h
SR = tested on: SR
Malme-3M = tested on: Malme-3M
HL-60 = tested on: HL-60
MDA-N = tested on: MDA-N
SF-295 = tested on: SF-295
NCI-H522 = tested on: NCI-H522
SK-MEL-2 = tested on: SK-MEL-2
UACC-62 = tested on: UACC-62
SF-539 = tested on: SF-539
T47D = tested on: T47D
PC-3 = tested on: PC-3
MDA-MB-435 = tested on: MDA-MB-435
HOP-92 = tested on: HOP-92
K562 = tested on: K562
HCT-116 = tested on: HCT-116
RXF 393 = tested on: RXF 393
M14 = tested on: M14
CAKI-1 = tested on: CAKI-1
MDA-MB-231 = tested on: MDA-MB-231

| Compound | GI50 (SR) | GI50 (Malme-3M) | GI50 (HL-60) | GI50 (MDA-N) | GI50 (SF-295) | GI50 (NCI-H522) | GI50 (SK-MEL-2) | GI50 (UACC-62) | GI50 (SF-539) | GI50 (T47D) | GI50 (PC-3) | GI50 (MDA-MB-435) | GI50 (HOP-92) | GI50 (K562) | GI50 (HCT-116) | GI50 (RXF 393) | GI50 (M14) | GI50 (CAKI-1) | GI50 (MDA-MB-231) |
| --- | --- | --- | --- | --- | --- | --- | --- | --- | --- | --- | --- | --- | --- | --- | --- | --- | --- | --- | --- |
| CC(C)(C)C1=C(Br)C(Br)(C(C)(C)C)OP1(=O)c1ccccc1 (centres undefined) | > 100 µM (inactive) | > 100 µM (inactive) | > 100 µM (inactive) | > 100 µM (inactive) | > 100 µM (inactive) | > 100 µM (inactive) | > 100 µM (inactive) | > 100 µM (inactive) | > 100 µM (inactive) | 31.5 µM (inactive) | > 100 µM (inactive) | > 100 µM (inactive) | > 100 µM (inactive) | > 100 µM (inactive) | > 100 µM (inactive) | > 100 µM (inactive) | > 100 µM (inactive) | > 100 µM (inactive) |  |
| N#Cc1c(O)c(C=O)c(=O)n2c1[nH]c1ccccc12 | 61.4 µM (inactive) | > 100 µM (inactive) |  | > 100 µM (inactive) | > 100 µM (inactive) | > 100 µM (inactive) |  | > 100 µM (inactive) | > 100 µM (inactive) |  | > 100 µM (inactive) | > 100 µM (inactive) | > 100 µM (inactive) | > 100 µM (inactive) | > 100 µM (inactive) | > 100 µM (inactive) | > 100 µM (inactive) | > 100 µM (inactive) | > 100 µM (inactive) |
| O=C(Nc1ccccc1F)c1cc2ccc(O)cc2o/c1=N\c1ccccc1F | 1.87 µM (inactive) | 1.73 µM (inactive) | 2.09 µM (inactive) | 2.29 µM (inactive) | 2.84 µM (inactive) | 1.44 µM (inactive) | 1.84 µM (inactive) | 2.37 µM (inactive) | 3.33 µM (inactive) | 1.96 µM (inactive) | 2.58 µM (inactive) | 2.03 µM (inactive) |  | 2.15 µM (inactive) | 2.06 µM (inactive) |  | 2.55 µM (inactive) | 1.98 µM (inactive) |  |
| CCOC(=O)C1(C/C=C/CBr)CCc2ccccc2C1=O (centres undefined) |  | 19.1 µM (inactive) | 6.3 µM (inactive) | 14.4 µM (inactive) | 17.3 µM (inactive) | 12.6 µM (inactive) | 14.1 µM (inactive) | 10.6 µM (inactive) | 18.1 µM (inactive) | 14.3 µM (inactive) | 15.7 µM (inactive) | 14.3 µM (inactive) |  |  | 13.3 µM (inactive) | 6.03 µM (inactive) | 13.1 µM (inactive) | 15.1 µM (inactive) | 18.2 µM (inactive) |
| CCCCCC(=O)OCC1(CO)C/C(=C/CC(C(C)C)C(C)C)C(=O)O1 (centres undefined) |  | 24.3 µM (inactive) |  | 34 µM (inactive) | 51.1 µM (inactive) | 13.7 µM (inactive) | > 75 µM (inactive) | > 75 µM (inactive) |  | 52.6 µM (inactive) | 63.5 µM (inactive) | 21.8 µM (inactive) | 27 µM (inactive) |  | 27.7 µM (inactive) | > 75 µM (inactive) |  | 19.9 µM (inactive) | > 75 µM (inactive) |
| Cc1cnccc1/N=N/c1ccc(N(C)C)cc1 |  | 35.7 µM (inactive) | 47.5 µM (inactive) | 8.32 µM (inactive) | 21.4 µM (inactive) |  |  | 13.8 µM (inactive) | 19.6 µM (inactive) | 48.6 µM (inactive) | 26.6 µM (inactive) | 7.6 µM (inactive) | 9.38 µM (inactive) | 18.6 µM (inactive) | 22.9 µM (inactive) | 14.9 µM (inactive) | 41.5 µM (inactive) | 25.9 µM (inactive) | 16.3 µM (inactive) |
| O=C1C(Cl)=C(OCCCCl)C(=O)c2c(O)ccc(O)c21 | 0.0836 µM (active) | 1.74 µM (inactive) | 0.0715 µM (active) | 1.52 µM (inactive) | 6.17 µM (inactive) |  |  | 1.77 µM (inactive) | 3.01 µM (inactive) | 2.34 µM (inactive) | 3.99 µM (inactive) |  | 1.78 µM (inactive) | 0.401 µM (active) | 1.85 µM (inactive) | 2.28 µM (inactive) | 1.43 µM (inactive) | 1.21 µM (inactive) | 2.31 µM (inactive) |
| O=C(Nc1ccccc1)OC1OC(COC(=O)c2ccccc2)C(OC(=O)c2ccccc2)C1OS(=O)(=O)c1ccc([N+](=O)[O-])cc1 (centres undefined) | > 100 µM (inactive) | > 100 µM (inactive) | 86.7 µM (inactive) | > 100 µM (inactive) | > 100 µM (inactive) | 40.3 µM (inactive) | > 100 µM (inactive) | > 100 µM (inactive) | > 100 µM (inactive) | > 100 µM (inactive) | > 100 µM (inactive) | > 100 µM (inactive) | > 100 µM (inactive) | > 100 µM (inactive) | > 100 µM (inactive) | > 100 µM (inactive) | > 100 µM (inactive) | > 100 µM (inactive) |  |
| CSc1ncnc2c1ncn2CCC#N | > 100 µM (inactive) | > 100 µM (inactive) | > 100 µM (inactive) | > 100 µM (inactive) | > 100 µM (inactive) | > 100 µM (inactive) |  |  | > 100 µM (inactive) |  | > 100 µM (inactive) | > 100 µM (inactive) | > 100 µM (inactive) | > 100 µM (inactive) | > 100 µM (inactive) | > 100 µM (inactive) | > 100 µM (inactive) | > 100 µM (inactive) | > 100 µM (inactive) |
| O=C1CCCC[C@H]1C(O)CC1CC(=O)N(c2ccccc2)C(=O)C1 (some centres undefined) | > 100 µM (inactive) | > 100 µM (inactive) | > 100 µM (inactive) | > 100 µM (inactive) | > 100 µM (inactive) | > 100 µM (inactive) |  | > 100 µM (inactive) | > 100 µM (inactive) |  | > 100 µM (inactive) | > 100 µM (inactive) | > 100 µM (inactive) | > 100 µM (inactive) | > 100 µM (inactive) | > 100 µM (inactive) | > 100 µM (inactive) | > 100 µM (inactive) | > 100 µM (inactive) |
| COc1ccc(N2C(=O)/C(=C\c3cccc(Oc4ccccc4)c3)SC2c2ccccc2)cc1 (centres undefined) | 16.7 µM (inactive) | 34.6 µM (inactive) | 20.5 µM (inactive) | 29.3 µM (inactive) | 60 µM (inactive) | 8.24 µM (inactive) | > 100 µM (inactive) | 50.2 µM (inactive) | 24.5 µM (inactive) | 37.5 µM (inactive) |  | 30.5 µM (inactive) | 28.2 µM (inactive) | 26.4 µM (inactive) | 25.4 µM (inactive) | 8.59 µM (inactive) | 49.7 µM (inactive) | > 100 µM (inactive) | > 100 µM (inactive) |
| N#CSC1CCCCNC1=O (centres undefined) | 6 µM (inactive) | 14.4 µM (inactive) | 23.9 µM (inactive) |  | 14.8 µM (inactive) | 8.09 µM (inactive) | 11.4 µM (inactive) | 12.3 µM (inactive) | 12.7 µM (inactive) | 13 µM (inactive) | 13.6 µM (inactive) | 13.9 µM (inactive) | 2.78 µM (inactive) | 18.2 µM (inactive) | 8.45 µM (inactive) | 13.7 µM (inactive) | 16.7 µM (inactive) | 11.8 µM (inactive) | 14.9 µM (inactive) |
| O=C1C(C(c2ccccc2)N2CCOCC2)=C(O)C(c2ccccc2)N1c1ccccc1 (centres undefined) |  | 3.05 µM (inactive) | > 10 µM (inactive) | > 10 µM (inactive) | > 10 µM (inactive) | > 10 µM (inactive) | > 10 µM (inactive) | > 10 µM (inactive) | > 10 µM (inactive) | > 10 µM (inactive) | > 10 µM (inactive) | > 10 µM (inactive) |  | > 10 µM (inactive) | > 10 µM (inactive) | > 10 µM (inactive) | > 10 µM (inactive) | > 10 µM (inactive) | > 10 µM (inactive) |
| COC(=O)C1(O)C(c2ccccc2)NC2(C)CCCC21 (centres undefined) |  | > 100 µM (inactive) | > 100 µM (inactive) | > 100 µM (inactive) | > 100 µM (inactive) | > 100 µM (inactive) | > 100 µM (inactive) | > 100 µM (inactive) | > 100 µM (inactive) | > 100 µM (inactive) | > 100 µM (inactive) | > 100 µM (inactive) |  |  | > 100 µM (inactive) | > 100 µM (inactive) | > 100 µM (inactive) | > 100 µM (inactive) | > 100 µM (inactive) |
| Cc1ccc(NC(=O)/C(=N/N(C)C)C(C2OC(=O)c3ccccc32)[N+](=O)[O-])cc1 (centres undefined) |  |  | > 100 µM (inactive) | > 100 µM (inactive) | > 100 µM (inactive) |  | > 100 µM (inactive) | > 100 µM (inactive) | > 100 µM (inactive) | > 100 µM (inactive) | > 100 µM (inactive) | > 100 µM (inactive) | > 100 µM (inactive) | > 100 µM (inactive) | > 100 µM (inactive) | > 100 µM (inactive) | > 100 µM (inactive) | > 100 µM (inactive) | > 100 µM (inactive) |
| CCNc1nc(N)c(C(=O)c2ccc(Cl)cc2)s1 |  | > 100 µM (inactive) | 13.6 µM (inactive) | 41.8 µM (inactive) |  |  | 41.7 µM (inactive) | 45.5 µM (inactive) | 33 µM (inactive) | 33 µM (inactive) | 39.9 µM (inactive) | 32.2 µM (inactive) | > 100 µM (inactive) | 29.3 µM (inactive) | 27.9 µM (inactive) | 22 µM (inactive) | 44.6 µM (inactive) |  | > 100 µM (inactive) |
| CC(=O)OC1(C)C=CC(=O)C=C1 | 32.7 µM (inactive) |  | 27.9 µM (inactive) | 31.2 µM (inactive) | 37.2 µM (inactive) | 10.8 µM (inactive) | 28.2 µM (inactive) | 17.1 µM (inactive) | 18.3 µM (inactive) |  | 27.4 µM (inactive) | 29.9 µM (inactive) | 39 µM (inactive) | 50.8 µM (inactive) | 80.2 µM (inactive) |  | 32.6 µM (inactive) | 46 µM (inactive) | 24.2 µM (inactive) |
